Laboratory results: patent US8519121B2, “Dextran for treating lung cancer” (Guangzhou Konzern Pharmaceutical Co., Ltd., priority 2008, dated 2013)

How the values were obtained:
Assay type in all cases: cell-based
[1] = system: human small cell lung cancer (NCl-H446); experiment: MTT cell proliferation, human small cell lung cancer (NCl-H446); conditions: NCI-H446 cells, 48 hours, 0.1 μg/ml; for A570: n = 9, X ± SD
Method: (§1) Human lung cancer cell (A549), purchased from cell center of Xiangya School of Medicine, Central South University. Human small cell lung cancer (NCl-H446) and Chinese Hamster Lung Epithelial cells (CHL), purchased from Shanghai Institute of Biochemistry and Cell Biology, Chinese Academy of Sciences. Culture condition: RPMI 1640 medium with 10% bovine serum, 37° C., 5% CO2. Take the logarithmic phase cell for the following experiment.
(§2) Weight 3.8 g KY-1-1 into 10 ml bottle, dissolve with DMSO, and then dilute with normal saline (N.S.) to 300.0 μg/ml, 100.0 μg/ml, 30.0 μg/ml, 10.0 μg/ml, 3.0 μg/ml, 1.0 μg/ml, put into 2 ml EP tube separately, preserve in 4° C.
(§3) Injection Cisplatin (DDP), purchased from Qilu Pharmaceutical Co., Ltd., 10 mg/bottle, batch number 6030052 DB, dissolve with normal saline, dilute to 100.0 μg/ml, 10.0 μg/ml and 1.0 μg/ml.
(§4) Taxol (TAX), purchased from Beijing Sihuan Pharmaceutical Technology Stock Company, 30 mg/5 ml/bottle, batch number 060830, dissolve with normal saline, dilute to 100.0 μg/ml, 10.0 μg/ml and 1.0 μg/ml. • (2) Method
(§5) Preparing suspension of human lung cancer cell (A549), human small cell lung cancer (NCl-H446) and Chinese Hamster Lung Epithelial cells (CHL), adjust to 0.5×10^4 cells/ml, seed in 96-microplate, 180 μl/hole. After cell adhesion (about 12 hours), add sample and control solution 20 μl separately into each hole, adjust the final concentration of KY-1-1 to 0.1 μg/ml, 0.3 μg/ml, 1.0 μg/ml, 3.0 μg/ml, 10.0 μg/ml and 30.0 μg/ml, and the final concentration of DDP and TAX are both 0.1 μg/ml, incubate for 48 hours, and then add MTT (5 mg/ml, MTT:PBS) 20 μl to each hole, incubate for 6 hours, remove the liquid in each hole, and then add DMSO 100 μl to each hole in order to dissolve the purple blue precipitate, then detect the absorbency (A) in 570 nm by an enzyme-labeled instrument EXL-800. Calculate the inhibition ratio (IR) with the following equation: IR(%)=(1−mean of A of dextran group/mean of A of control group)×100%.
(§6) The selective index (SI) of cytotoxicity of the dextran is calculated with the following equation: SI═IC50(CHL cells)/IC50(A549 cells or NCl-H446 cells),
(§7) wherein IC50 is calculated by Calcus Zn procedure.
(§8) Repeat the above experiment twice.
(§9) Experiment data is expressed by X±SD, and use the software SPSS 15.0 Evaluation for windows to carry out One Way ANOVA analysis, and the analysis of variance uses the LSD method and SNK method. The result is compared by Student's test, there is statistic marked difference under the condition of […].

[2] = system: human lung cancer cell (A549); experiment: MTT cell proliferation, human lung cancer (A549); conditions: A549 cells, 48 hours, 0.1 μg/ml; for A570: n = 9, X ± SD
Method: as §1, §2, §3, §4, §5, §6, §7, §8, §9

[3] = system: human lung cancer cell (A549); experiment: Anchorage-dependent cell growth capacity, plate cloning method, A549; conditions: 7 days, 0.1 μg/ml; for Number of Colonies: n = 9, X ± SD
Method: as §1
(§10) Preparing suspension of human lung cancer cell (A549) and human small cell lung cancer (NCl-H446), adjust to 0.3×10^3 cells/ml. In each hole, cell suspension […], and sample 0.2 ml, and control solution 0.2 ml. The final concentration of KY-1-1 is 0.1 μg/ml, 0.3 μg/ml, 1.0 μg/ml, 3.0 μg/ml, 10.0 μg/ml and 30.0 μg/ml, and the final concentration of DDP and TAX are both 0.1 μg/ml, add the same volume medium into the control group. Three holes in each group, seed in 24-microplate, incubate in CO2 for 7 days. Add 95% methanol 0.5 ml into each hole, fixed for 15 minutes, and Giemsa staining for 10-30 minutes. The number of cells in a colony is more than 50, or the diameter of the colony is more than 75 μm. Count the number of colonies in each hole, calculate the mean and record it. Calculate the colony inhibition ratio (CIR) with the following equation: CIR(%)=(1−mean of number of colony of dextran group/mean of number of colony of control group)×100%.
(§11) The plate efficiency (PE) is calculated with the following equation: PE=mean of number of colony/number of seeded cells×100%,
as §7, §8, §9

[4] = system: Chinese Hamster Lung Epithelial cells (CHL); experiment: MTT cell proliferation, Chinese Hamster Lung Epithelial cells (CHL); conditions: 48 hours, 0.1 μg/ml; for A570: n = 9, X ± SD
Method: as §1, §2, §3, §4, §5, §6, §7, §8, §9

[5] = system: human small cell lung cancer (NCl-H446); experiment: Anchorage-dependent cell growth capacity, plate cloning method, NCl-H446; conditions: NCI-H446, plate cloning method, 7 days, 0.1 μg/ml; for Number of Colonies: n = 9, X ± SD
Method: as §1, §10, §11, §7, §8, §9

[6] = system: human small cell lung cancer (NCl-H446); experiment: Anchorage-independent cell growth (cell colony forming capacity in agar), NCl-H446; conditions: NCI-H446, colony forming in agar, 7 days, 0.1 μg/ml; for Number of Colonies: n = 9, X ± SD
Method: as §1
(§12) Take 24-microplate, add 0.6% agar medium 0.5 ml in each hole. Preparing suspension of human lung cancer cell (A549) and human small cell lung cancer (NCl-H446), adjust to 1.6×10^3 cells/ml. In each hole, cell suspension 1.6 ml, and sample 0.2 ml, and control solution 0.2 ml. The final concentration of KY-1-1 is 0.1 μg/ml, 0.3 μg/ml, 1.0 μg/ml, 3.0 μg/ml, 10.0 μg/ml and 30.0 μg/ml, and the final concentration of DDP and TAX are both 0.1 μg/ml. DDP 0.2 ml, and TAX 0.2 ml. Add the same volume medium into the control group. Three holes in each group, after mixing with 0.3% agar 0.2 ml, seed in 24-microplate 0.5 ml/hole, incubate in CO2 for 7 days. The number of cells in a colony is more than 50, or the diameter of the colony is more than 75 μm. Count the number of colonies in each hole, calculate the mean and record it. Calculate the colony inhibition ratio (CIR) with the following equation: CIR(%)=(1−mean of number of colony of dextran group/mean of number of colony of control group)×100%.
as §11, §7, §8, §9

[7] = system: human lung cancer cell (A549); experiment: Anchorage-independent cell growth (cell colony forming capacity in agar), A549; conditions: 7 days, 0.1 μg/ml; for Number of Colonies: n = 9, X ± SD
Method: as §1, §12, §11, §7, §8, §9

| SMILES | IR (%) [1] [%] | A570 [1] | IR (%) [2] [%] | A570 [2] | IR (%) [3] [%] | Number of Colonies [3] | IR (%) [4] [%] | A570 [4] | IR (%) [5] [%] | Number of Colonies [5] | IR (%) [6] [%] | Number of Colonies [6] | IR (%) [7] [%] | Number of Colonies [7] |
| --- | --- | --- | --- | --- | --- | --- | --- | --- | --- | --- | --- | --- | --- | --- |
| N.N.[Cl][Pt][Cl] [DDP, Cisplatin] | 77.89 | 0.36 ± 0.03 | 76.35 | 0.37 ± 0.03 | 75.82 | 23.89 ± 4.43 | 76.35 | 1.41 ± 0.30 | 78.44 | 23.33 ± 4.18 | 75.98 | 17.00 ± 2.74 | 77.05 | 14.00 ± 2.00 |
| CC(=O)O[C@H]1C(=O)[C@@]2(C)[C@H]([C@H](OC(=O)c3ccccc3)[C@]3(O)C[C@H](OC(=O)[C@H](O)[C@@H](NC(=O)c4ccccc4)c4ccccc4)C(C)=C1C3(C)C)[C@]1(OC(C)=O)CO[C@@H]1C[C@@H]2O [TAX, Taxol] | 83.54 | 0.27 ± 0.01 | 83.13 | 0.27 ± 0.03 | 82.00 | 17.78 ± 2.05 | 83.13 | 1.25 ± 0.14 | 82.34 | 19.11 ± 2.57 | 84.46 | 11.00 ± 1.58 | 83.61 | 10.00 ± 1.87 |
